Measurements as given in US20250195521A1 (Revolution Medicines, Inc., priority 2020, published 2025).
pEC50, pIC50: −log10 of the molar value. Several values for one entry are separate records, joined by “and”; a condition that tells them apart may be missing. Equal values may be shown once. Read-outs that look alike come from different tables or passages of the source.

Tests used:
[1] = tested on: Capan-1 cells (K-Ras G12V); experiment: CellTiter-Glo cell viability, Capan-1; assay type: cell-based, human; details: Homo sapiens, CAPAN-1, 120 h, read-out: Capan-1 Cell Viability IC50
How it was run: (§1)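 Viability is read as luminescence after five days of compound exposure, with plates first equilibrated to room temperature for roughly 30 minutes. Each signal is expressed as a percentage of the mean DMSO control, and curves are fitted by four-parameter logistic regression.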

[2] = tested on: NCI-H358 cells (K-Ras G12C); experiment: CellTiter-Glo cell viability, NCI-H358; assay type: cell-based, human; details: Homo sapiens, NCI-H358, 120 h, K-Ras G12C, 5-day treatment; read-out: H358 Cell Viability IC50
How it was run: as §1

[3] = tested on: K-Ras G12C (NCI-H358 cells); experiment: Potency assay: pERK in NCI-H358 cells; assay type: cell-based, human; details: Homo sapiens, read-out: pERK EC50 (H358 KRAS G12C)
How it was run: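 Cells plated the day before were exposed for 4 h at 37° C, 5% CO2 to a 10-point, 3-fold DMSO dilution series (10 mM top stock), in duplicate. Phospho-ERK was read by AlphaLISA SureFire Ultra or by In-Cell Western with DRAQ5 DNA stain, and IC50 came from a 4-parameter sigmoidal fit.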

[4] = molecular target: K-Ras G12C(GMP-PNP) binding to BRAF RBD (Homo sapiens (Human), UniProt P01116+P62937, G12C); experiment: Disruption of BRAF RBD interaction with K-Ras (FRET / MOA assay), K-Ras G12C; assay type: biochemical
Sequence of K-Ras G12C(GMP-PNP) binding to BRAF RBD (P01116 other isoform, or with tags, fused parts or gaps G12C): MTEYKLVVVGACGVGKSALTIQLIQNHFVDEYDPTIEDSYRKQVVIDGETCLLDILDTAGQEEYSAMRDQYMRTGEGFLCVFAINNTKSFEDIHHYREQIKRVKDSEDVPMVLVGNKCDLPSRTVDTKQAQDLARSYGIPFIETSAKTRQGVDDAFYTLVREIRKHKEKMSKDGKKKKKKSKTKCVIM
Sequence of K-Ras G12C(GMP-PNP) binding to BRAF RBD (P62937 whole entry): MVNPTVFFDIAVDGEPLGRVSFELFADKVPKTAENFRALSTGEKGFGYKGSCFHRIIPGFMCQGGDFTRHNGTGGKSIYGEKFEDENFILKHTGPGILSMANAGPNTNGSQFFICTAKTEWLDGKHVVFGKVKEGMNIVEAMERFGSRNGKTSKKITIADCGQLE
How it was run: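 Cpd 10-pt 3-fold dilution, top 30 μM final; Ras/CypA/BRAF RBD mix 3 h, 25° C. Add anti-His Eu-W1024 10 nM + anti-GST APC 50 nM final, 1.5 h. Readout TR-FRET ratio decrease vs DMSO → IC50.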

SMILES | pIC50 [2] | pEC50 ([3]; NCI-H358 cells, 4 hours) | pIC50 ([4]; read-out: KRAS G12C FRET IC50) | pIC50 ([4]; KRAS G12C FRET IC50) | pIC50 ([1]; K-Ras G12V, 5-day treatment) | pIC50 [1] | pEC50 ([3]; NCI-H358, 4 h)
CCn1c(-c2cccnc2[C@H](C)OC)c2c3cc(ccc31)-c1cc(O)cc(c1)C[C@H](NC(=O)[C@H](C(C)C)N(C)C(=O)[C@H]1CCN(C(C)=O)C1)C(=O)N1CCC[C@H](N1)C(=O)OCC(C)(C)C2 [Compound A5] | 6.00 to 7.00 | > 5.30 | – | – | 6.00 to 7.00 | – | –
CCn1c(-c2cccnc2[C@H](C)OC)c2c3cc(ccc31)-c1cccc(c1)C[C@H](NC(=O)[C@H](C(C)C)N(C)C(C)=O)C(=O)N1CCC[C@H](N1)C(=O)OCC(C)(C)C2 [Compound A61] | 5.00 to 6.00 | > 5.30 | – | – | 5.00 to 6.00 | – | –
CCn1c(-c2cccnc2[C@H](C)OC)c2c3cc(ccc31)-c1csc(n1)C[C@H](NC(=O)[C@H](C(C)C)N(C)C(=O)[C@H]1CCN(C(=O)CN(C)C)C1)C(=O)N1CCC[C@H](N1)C(=O)OCC(C)(C)C2 [Compound A97] | 5.00 to 6.00 | > 5.30 | – | – | 5.00 to 6.00 | – | –
CCn1c(-c2cccnc2[C@H](C)OC)c2c3cc(ccc31)-c1cccc(c1)C[C@H](NC(=O)[C@H](C(C)C)N(C)C(=O)[C@H]1CCNC1)C(=O)N1CCC[C@H](N1)C(=O)OCC(C)(C)C2 [Compound A119] | – | > 5.30 | 6.00 to 7.00 | – | < 5.00 | – | –
CCn1c(-c2cccnc2[C@H](C)OC)c2c3cc(ccc31)-c1cc(O)cc(c1)C[C@H](NC(=O)C(=C(C)C)N(C)C(C)=O)C(=O)N1CCC[C@H](N1)C(=O)OCC(C)(C)C2 [Compound A142] | – | > 5.30 | 7.00 to 8.00 | – | < 5.00 | – | –
CCn1c(-c2cccnc2[C@H](C)OC)c2c3cc(ccc31)-c1cc(cc3nc[nH]c13)C[C@H](NC(=O)[C@H](C(C)C)N(C)C(C)=O)C(=O)N1CCC[C@H](N1)C(=O)OCC(C)(C)C2 [Compound A153] | – | > 5.30 | 7.00 to 8.00 | – | < 5.00 | – | –
CCn1c(-c2cccnc2[C@H](C)OC)c2c3cc(ccc31)-c1cc(cc(S(C)(=O)=O)c1)C[C@H](NC(=O)[C@H](C(C)C)N(C)C(C)=O)C(=O)N1CCC[C@H](N1)C(=O)OCC(C)(C)C2 [Compound A154] | – | > 5.30 | 7.00 to 8.00 | – | < 5.00 | – | –
CCn1c(-c2cccnc2[C@H](C)OC)c2c3cc(ccc31)-c1cc(O)cc(c1)C[C@H](NC(=O)[C@H](C(C)C)N(C)C(=O)[C@H]1CCN(C3CC3)C1)C(=O)N1CCC[C@H](N1)C(=O)OCC(C)(C)C2 [Compound A175] | – | > 5.30 | > 8.00 | – | 5.00 to 6.00 | – | –
CCn1c(-c2cccnc2[C@H](C)OC)c2c3cc(ccc31)-c1cc(O)cc(c1)C[C@H](NC(=O)C1CCC3C1C3(F)F)C(=O)N1CCC[C@H](N1)C(=O)OCC(C)(C)C2 (some centres unmarked) [Compound A181] | – | > 5.30 | 7.00 to 8.00 and 6.00 to 7.00 | – | < 5.00 | – | –
CCn1c(-c2cccnc2[C@H](C)OC)c2c3cc(ccc31)-c1cc(O)cc(c1)C[C@H](NC(=O)[C@@H]1[C@H]3C[C@H]3CN1C(C)=O)C(=O)N1CCC[C@H](N1)C(=O)OCC(C)(C)C2 [Compound A207] | – | > 5.30 | 7.00 to 8.00 | – | < 5.00 | – | –
CCn1c(-c2cccnc2[C@H](C)OC)c2c3cc(ccc31)-c1csc(n1)C[C@H](NC(=O)[C@H](C(C)C)N(C)C(=O)[C@H]1CCN(S(C)(=O)=O)C1)C(=O)N1CCC[C@H](N1)C(=O)OCC(C)(C)C2 [Compound A237] | – | – | 7.00 to 8.00 | – | – | 5.00 to 6.00 | > 5.30
CCn1c(-c2cccnc2[C@H](C)OC)c2c3cc(ccc31)-c1cccc(c1)C[C@H](NC(=O)[C@H](C(C)C)N(C)C(=O)C1COC1)C(=O)N1CCC[C@H](N1)C(=O)OCC(C)(C)C2 [Compound A246] | – | > 5.30 | > 8.00 | – | 5.00 to 6.00 | – | –
CCn1c(-c2cccnc2[C@H](C)OC)c2c3cc(ccc31)-c1cc(O)cc(c1)C[C@H](NC(=O)[C@H](C(C)C)N(C)C(=O)C1CC(=O)N(C3CC3)C1)C(=O)N1CCC[C@H](N1)C(=O)OCC(C)(C)C2 (some centres unmarked) [Compound A252] | – | > 5.30 | 7.00 to 8.00 | – | 6.00 to 7.00 | – | –
CCn1c(-c2cnccc2COC)c2c3cc(ccc31)-c1cc(O)cc(c1)C[C@H](NC(=O)[C@H](C(C)C)N(C)C(=O)N1CCNCC1)C(=O)N1CCC[C@H](N1)C(=O)OCC(C)(C)C2 [Compound A255] | – | > 5.30 | > 8.00 | – | < 5.00 | – | –
CCn1c(-c2cccnc2[C@H](C)OC)c2c3cc(ccc31)-c1cc(O)cc(c1)C[C@H](NC(=O)[C@@H](C(C)C)N(C)C(C)=O)C(=O)N1CCC[C@H](N1)C(=O)OCC(C)(C)C2 [Compound A256] | 5.00 to 6.00 | > 5.30 | – | – | – | – | –
CCn1c(-c2cccnc2[C@H](C)OC)c2c3cc(ccc31)-c1csc(n1)C[C@H](NC(=O)[C@H](C(C)C)N(C)C(=O)N1CCN(C(C)=O)CC1)C(=O)N1CCC[C@H](N1)C(=O)OCC(C)(C)C2 [Compound A291] | – | > 5.30 | > 8.00 | – | 7.00 to 8.00 | – | –

The next lines start with results.

pIC50 [2] | pEC50 ([3]; NCI-H358 cells, 4 hours) | pIC50 ([4]; read-out: KRAS G12C FRET IC50) | pIC50 ([4]; KRAS G12C FRET IC50) | SMILES | pIC50 ([1]; K-Ras G12V, 5-day treatment) | pIC50 [1] | pEC50 ([3]; NCI-H358, 4 h)
6.00 to 7.00 | > 5.30 | – | – | CCn1c(-c2cccnc2[C@H](C)OC)c2c3cc(ccc31)-c1csc(n1)C[C@H](NC(=O)[C@H](C(C)C)N1C[C@@H](c3ccccc3)CC1=O)C(=O)N1CCC[C@H](N1)C(=O)OCC(C)(C)C2 (single isomer, unassigned) [Compound A544] | 6.00 to 7.00 | – | –
6.00 to 7.00 | > 5.30 | – | – | CCn1c(-c2cccnc2[C@H](C)OC)c2c3cc(ccc31)-c1csc(n1)C[C@H](NC(=O)C1(F)CCC1)C(=O)N1CCC[C@H](N1)C(=O)OCC(C)(C)C2 [Compound A361] | 6.00 to 7.00 | – | –
6.00 to 7.00 | > 5.30 | – | – | CCn1c(-c2cccnc2[C@H](C)OC)c2c3cc(ccc31)-c1csc(n1)C[C@H](NC(=O)C1(F)CC1)C(=O)N1CCC[C@H](N1)C(=O)OCC(C)(C)C2 [Compound A362] | 6.00 to 7.00 | – | –
– | > 5.30 | > 8.00 | – | CCn1c(-c2cccnc2[C@H](C)OC)c2c3cc(ccc31)-c1cc(O)cc(c1)C[C@H](NC(=O)[C@H](C(C)C)N(C)C(=O)[C@H]1OCC[C@H]1c1ccccc1)C(=O)N1CCC[C@H](N1)C(=O)OCC(C)(C)C2 [Compound A425] | – | – | –
– | > 5.30 | 7.00 to 8.00 | – | CCn1c(-c2cccnc2[C@H](C)OC)c2c3cc(ccc31)-c1cc(O)cc(c1)C[C@H](NC(=O)[C@H](C(C)C)N(C)C(=O)C1CNCCNC1)C(=O)N1CCC[C@H](N1)C(=O)OCC(C)(C)C2 [Compound A432] | – | – | –
> 8.00 | > 5.30 | – | – | CCn1c(-c2cc(N3CCN(C)CC3)cnc2[C@H](C)OC)c2c3cc(ccc31)-c1csc(n1)C[C@H](NC(=O)[C@H](C(C)C)N(C)C(=O)[C@H]1CCCS1(=O)=O)C(=O)N1CCC[C@H](N1)C(=O)OCC(C)(C)C2 [Compound A439] | 7.00 to 8.00 | – | –
– | > 5.30 | – | 7.00 to 8.00 | CCn1c(-c2cc(N3CCN(C)CC3)cnc2[C@H](C)OC)c2c3cc(ccc31)-c1csc(n1)C[C@H](NC(=O)[C@H](C(C)C)N(C)C(=O)N1CC(OC)C1)C(=O)N1CCC[C@H](N1)C(=O)OCC(C)(C)C2 [Compound A466] | – | – | –
7.00 to 8.00 | > 5.30 | – | – | CCn1c(-c2cccnc2[C@H](C)OC)c2c3cc(ccc31)-c1csc(n1)C[C@H](NC(=O)[C@H](C(C)C)N(C)C(=O)N1CCC[C@@H]1CN(C)C)C(=O)N1CCC[C@H](N1)C(=O)OCC(C)(C)C2 [Compound A518] | 7.00 to 8.00 | – | –
6.00 to 7.00 | > 5.30 | – | – | CCn1c(-c2cccnc2[C@H](C)OC)c2c3cc(ccc31)-c1csc(n1)C[C@H](NC(=O)[C@H](C(C)C)N(CCc1ccncc1)C1CC1)C(=O)N1CCC[C@H](N1)C(=O)OCC(C)(C)C2 [Compound A556] | 6.00 to 7.00 | – | –
7.00 to 8.00 | > 5.30 | – | – | CCn1c(-c2cccnc2[C@H](C)OC)c2c3cc(ccc31)-c1csc(n1)C[C@H](NC(=O)[C@H](C(C)C)N(C)C(=O)N1CC[C@@H](F)[C@H](N)C1)C(=O)N1CCC[C@H](N1)C(=O)OCC(C)(C)C2 [Compound A559] | 6.00 to 7.00 | – | –
7.00 to 8.00 | > 5.30 | – | – | CCn1c(-c2cccnc2[C@H](C)OC)c2c3cc(ccc31)-c1csc(n1)C[C@H](NC(=O)[C@H](C(C)C)N(C)C(=O)[C@@H]1OCC[C@@H]1c1ccccc1)C(=O)N1CCC[C@H](N1)C(=O)OCC(C)(C)C2 [Compound A585] | 6.00 to 7.00 | – | –
6.00 to 7.00 | > 5.30 | – | – | CCn1c(-c2cccnc2[C@H](C)OC)c2c3cc(ccc31)-c1cccc(c1)C[C@H](NC(=O)[C@H](C(C)C)N(C)C(=O)[C@@H]1OCC[C@@H]1c1ccccc1)C(=O)N1CCC[C@H](N1)C(=O)OCC(C)(C)C2 [Compound A586] | 6.00 to 7.00 | – | –
5.00 to 6.00 | > 5.30 | – | – | CCn1c(-c2cccnc2[C@H](C)OC)c2c3cc(ccc31)-c1csc(n1)C[C@H](NC(=O)[C@H](C(C)C)N(C)C(=O)N1CCC[C@H]1c1ccccc1)C(=O)N1CCC[C@H](N1)C(=O)OCC(C)(C)C2 [Compound A599] | 5.00 to 6.00 | – | –
6.00 to 7.00 | > 5.30 | – | – | CCn1c(-c2cccnc2[C@H](C)OC)c2c3cc(ccc31)-c1cc(O)cc(c1)C[C@H](NC(=O)[C@H](C(C)C)N(C)C(=O)[C@]1(F)CCN(C(=O)OC)C1)C(=O)N1CCC[C@H](N1)C(=O)OCC(C)(C)C2 [Compound A616] | 6.00 to 7.00 | – | –
